# Reference: patent publication US20240122930A1, “INTEGRIN INHIBITORS AND USES THEREOF IN COMBINATION WITH OTHER AGENTS” (Pliant Therapeutics, Inc., priority 2022, published 2024)
# Where two headings read alike, the source gives them in different places.
# System: participants with idiopathic pulmonary fibrosis (IPF)
# [1] = 320 mg (n = 22), treatment up to 40 weeks
# [2] = All 40-160 mg (n = 67), 12 weeks
# [3] = All 40-320 mg (n = 88), 12 weeks
# [4] = pooled 40-160 mg, With Background SoC (n = 55), 12 weeks
# [5] = pooled 40-160 mg, With Background SoC nintedanib or pirfenidone (n = 55), 12 weeks
# [6] = pooled 40-160 mg, Without Background SoC (n = 12), 12 weeks
# [7] = single participant, 320 mg, after week 12, not drug related, resolved
# [8] = single participant, 320 mg, after week 12, not drug related, resolved with sequalae
# Description: The groups were stratified for the use of nintedanib or pirfenidone. The groups were screened 28 days before the Day 1 of the study. At Day 1, baseline values were collected. During week 12, the subjects received the last dose, and the study was ended at week 14. Primary and secondary endpoints of the study included safety, tolerability, and PK. Exploratory endpoints included change in FVC over 12 weeks; High Resolution CT-based Quantitative Lung Fibrosis (QLF) imaging; patient-reported outcome (PRO): VAS-cough severity; and effect on selected biomarkers.
# The groups were stratified for the use of nintedanib or pirfenidone. The screening was done 28 days before Day 1 and the baseline was measured on Day 1. The last dose was on Week 12, and the end of study was on Week 14. The primary and secondary endpoints include safety, tolerability, and PK. Exploratory Endpoints include change in Forced Vital Capacity (FVC) over 12 weeks, High Resolution CT-based Quantitative Lung Fibrosis (QLF) imaging, and effect on selected biomarkers.
# The groups were stratified for the use of nintedanib or pirfenidone. The groups were screened 28 days before the Day 1 of the study. At Day 1, baseline values were collected. The study was continued up to Week 48. The treatment duration per protocol is at least 24 weeks and at most 48 weeks. For the study, the primary and secondary endpoints evaluated in the trial were safety, tolerability, and pharmacokinetics. The exploratory endpoints evaluated included the change in FVC over 12 and 24 weeks; high Resolution CT-based Quantitative Lung Fibrosis (QLF) imaging; patient-reported cough severity; and effect on selected biomarkers.
structure (smiles),measurement,setting,value
"COCCN(CCCCc1ccc2c(n1)NCCC2)CC[C@H](Nc1ncnc2ccccc12)C(=O)O [Compound 5, (S)-4-((2-methoxyethyl) (4-(5,6,7,8-tetrahydro-1,8-naphthyridin-2-yl)butyl)amino)-2-(quinazolin-4-ylamino) butanoic acid]","TEAE Dyspnoea, participants reporting",[1],5 n
same,TEAE Idiopathic Pulmonary Fibrosis related to study drug,[1],0 n
same,"TEAE Idiopathic Pulmonary Fibrosis, % of participants",[1],(18.2) %
same,"TEAE Idiopathic Pulmonary Fibrosis, participants reporting",[1],4 n
same,TEAE Leading to Death,[1],1 n
same,"TEAE Leading to Death, % of participants",[1],(4.5) ^3%
same,TEAE Leading to Early Termination from Study,[1],3 n
same,"TEAE Leading to Early Termination from Study, % of participants",[1],"(13.6) ^2,3,4%"
same,TEAE Leading to Interruption of Study Drug,[1],4 n
same,"TEAE Leading to Interruption of Study Drug, % of participants",[1],(18.2) ^2%
same,TEAE Leading to Withdrawal of Study Drug,[1],3 n
same,"TEAE Leading to Withdrawal of Study Drug, % of participants",[1],"(13.6) ^2,3,4%"
same,TEAE Upper respiratory tract infection related to study drug,[1],0 n
same,"TEAE Upper respiratory tract infection, % of participants",[1],(9.1) %
same,"TEAE Upper respiratory tract infection, participants reporting",[1],2 n
same,TEAE of CTCAE Grade 3 or Higher,[1],5 n
same,"TEAE of CTCAE Grade 3 or Higher related to study drug, % of participants",[1],(4.5) ^1%
same,"TEAE of CTCAE Grade 3 or Higher, % of participants",[1],(22.7) %
same,TEAE related to study drug,[1],5 n
same,"TEAE related to study drug, % of participants",[1],(22.7) %
same,"TEAE, % of participants",[1],(90.9) %
same,"TEAE, participants reporting",[1],20 n
same,TEAE of CTCAE Grade 3 or Higher related to study drug,"320 mg (n = 22), treatment up to 40 weeks, blood pressure increased",1 n
same,Safety and tolerability,"320 mg, long-term treatment up to 40 weeks",well tolerated
same,"Any AEs, % of participants",[2],(68.7) %
same,"Any AEs, participants reporting",[2],46 n
same,Serious TEAE,[2],3 n
same,Serious TEAE related to study drug,[2],0 n
same,"Serious TEAE, % of participants",[2],(4.5) %
same,"TEAE Diarrhea (any causality), % of participants",[2],(17.9) %
same,"TEAE Diarrhea (any causality), participants reporting",[2],12 n
same,"TEAE Diarrhea related to study drug, % of participants",[2],(11.9) %
same,"TEAE Diarrhea related to study drug, participants reporting",[2],8 n
same,TEAE Leading to Death,[2],0 n
same,TEAE Leading to Early Termination from Study,[2],0 n
same,TEAE Leading to Interruption of Study Drug,[2],1 n
same,"TEAE Leading to Interruption of Study Drug, % of participants",[2],(1.5) %
same,TEAE Leading to Withdrawal of Study Drug,[2],0 n
same,TEAE of CTCAE Grade 3 or Higher,[2],4 n
same,TEAE of CTCAE Grade 3 or Higher related to study drug,[2],1 n
same,"TEAE of CTCAE Grade 3 or Higher related to study drug, % of participants",[2],(1.5) %
same,"TEAE of CTCAE Grade 3 or Higher, % of participants",[2],(6.0) %
same,TEAE related to study drug,[2],15 n
same,"TEAE related to study drug, % of participants",[2],(22.4) %
same,"TEAE, % of participants",[2],(67.2) %
same,"TEAE, participants reporting",[2],45 n
same,"Any AEs, % of participants",[3],72.7%
same,"Any AEs, participants reporting",[3],64 n
same,Serious TEAE,[3],4 n
same,Serious TEAE related to study drug,[3],0 n
same,"Serious TEAE, % of participants",[3],4.5%
same,"TEAE Diarrhea (any causality), % of participants",[3],17.0%
same,"TEAE Diarrhea (any causality), participants reporting",[3],15 n
same,"TEAE Diarrhea related to study drug, % of participants",[3],11.4%
same,"TEAE Diarrhea related to study drug, participants reporting",[3],10 n
same,TEAE Leading to Death,[3],1 n
same,"TEAE Leading to Death, % of participants",[3],1.1%
same,TEAE Leading to Early Termination from Study,[3],3 n
same,"TEAE Leading to Early Termination from Study, % of participants",[3],3.4%
same,TEAE Leading to Interruption of Study Drug,[3],2 n
same,"TEAE Leading to Interruption of Study Drug, % of participants",[3],2.3%
same,TEAE Leading to Withdrawal of Study Drug,[3],3 n
same,"TEAE Leading to Withdrawal of Study Drug, % of participants",[3],3.4%
same,TEAE of CTCAE Grade 3 or Higher,[3],6 n
same,TEAE of CTCAE Grade 3 or Higher related to study drug,[3],1 n
same,"TEAE of CTCAE Grade 3 or Higher related to study drug, % of participants",[3],1.1%
same,"TEAE of CTCAE Grade 3 or Higher, % of participants",[3],6.8%
same,TEAE related to study drug,[3],19 n
same,"TEAE related to study drug, % of participants",[3],21.6%
same,"TEAE, % of participants",[3],70.5%
same,"TEAE, participants reporting",[3],62 n
same,SAE Acute respiratory failure: Standard Toxicity Grade,"one participant, 40 mg, not treatment related, dose not changed, recovered/resolved",Grade 3
same,SAE Idiopathic pulmonary fibrosis (acute exacerbation): Standard Toxicity Grade,"one participant, 160 mg, not treatment related, about 2 weeks after 12-week treatment, not recovered/not resolved",Grade 3
same,SAE Atrial flutter: Standard Toxicity Grade,"one participant, 160 mg, not treatment related, underlying disease, recovered/resolved",Grade 3
same,SAE Acute respiratory failure: Standard Toxicity Grade,"one participant, 320 mg, GAP Stage III, after elective atrioventricular node ablation, not treatment related, drug withdrawn, fatal",Grade 5
same,"AE leading to withdrawal, Diarrhea: Standard Toxicity Grade","one participant, 320 mg, receiving nintedanib, recovered/resolved",Grade 1
same,"Any AEs, % of participants",[4],(69.1) %
same,"Serious TEAE, % of participants",[4],(5.5) %
same,"TEAE of CTCAE Grade 3 or Higher related to study drug, % of participants",[4],(1.8) %
same,"TEAE of CTCAE Grade 3 or Higher, % of participants",[4],(7.3) %
same,"TEAE related to study drug, % of participants",[4],(23.6) %
same,"TEAE, % of participants",[4],(67.3) %
same,"Any AEs, participants reporting",[5],38 n
same,Serious TEAE,[5],3 n
same,Serious TEAE related to study drug,[5],0 n
same,TEAE Leading to Death,[5],0 n
same,TEAE Leading to Early Termination from Study,[5],0 n
same,TEAE Leading to Interruption of Study Drug,[5],0 n
same,TEAE Leading to Withdrawal of Study Drug,[5],0 n
same,TEAE of CTCAE Grade 3 or Higher,[5],4 n
same,TEAE of CTCAE Grade 3 or Higher related to study drug,[5],1 n
same,TEAE related to study drug,[5],13 n
same,"TEAE, participants reporting",[5],37 n
same,"Any AEs, % of participants",[6],(66.7) %
same,"Any AEs, participants reporting",[6],8 n
same,Serious TEAE,[6],0 n
same,Serious TEAE related to study drug,[6],0 n
same,TEAE Leading to Death,[6],0 n
same,TEAE Leading to Early Termination from Study,[6],0 n
same,TEAE Leading to Interruption of Study Drug,[6],1 n
same,"TEAE Leading to Interruption of Study Drug, % of participants",[6],(8.3) %
same,TEAE Leading to Withdrawal of Study Drug,[6],0 n
same,TEAE of CTCAE Grade 3 or Higher,[6],0 n
same,TEAE of CTCAE Grade 3 or Higher related to study drug,[6],0 n
same,TEAE related to study drug,[6],2 n
same,"TEAE related to study drug, % of participants",[6],(16.7) %
same,"TEAE, % of participants",[6],(66.7) %
same,"TEAE, participants reporting",[6],8 n
same,SAE Pneumonia: Standard Toxicity Grade,"same participant, 40 mg, not treatment related, removed carpet from home without a mask, recovered/resolved",Grade 2
same,SAE Iron Deficiency anemia: Standard Toxicity Grade,"single participant, 320 mg, Week 29, not drug related, resolved with sequalae",Grade 3
same,SAE Ileus: Standard Toxicity Grade,"single participant, 320 mg, after week 12 (Week 21 hospitalization), not drug related, resolved",Grade 3
same,SAE Acute Kidney Injury: Standard Toxicity Grade,[7],Grade 2
same,SAE Gastritis: Standard Toxicity Grade,[7],Grade 2
same,SAE Hyperlactatemia: Standard Toxicity Grade,[7],Grade 2
same,SAE Acute Left Heart Failure: Standard Toxicity Grade,[8],Grade 3
same,SAE Gastric Ulcer: Standard Toxicity Grade,[8],Grade 3
same,SAE Haemorrhagic arteriovenous malformation: Standard Toxicity Grade,[8],Grade 3
